15 compounds from ChEMBL document CHEMBL4219081, “Discovery of 1,2,3,4-tetrahydropyrimido[1,2-a]benzimidazoles as novel class of corticotropin releasing factor 1 receptor antagonists” (Bioorg Med Chem, 2018) can be followed below.

Values after ≈ are worked out from the molar mass of the structure shown. A value given as a limit tells only on which side of the number the result lay.

As a reminder, the logD is the decadic logarithm of the distribution of all forms, ionised or not, between an organic phase and buffer at a given pH. A lower logD goes with a more hydrophilic compound. By solubility is commonly meant the concentration that dissolves in the medium under given conditions. A high value points to a readily soluble substance. As usually defined, the bioavailability is dose-corrected exposure relative to a reference, in per cent. High values mean much systemic uptake, low ones little systemic uptake.

Series [1] in a line: Lipophilicity, log D of the compound at pH 7.4. The series is classed as physicochemical. Particulars: buffer.
The nature of series [2]: Solubility of the compound in JP2 buffer at pH 6.8 at 10 mmol/L. The series is classed as physicochemical.
Series [3] can be described thus: Oral bioavailability in rat at 1 mg/kg administered as cassette dose. The series is classed as ADME, organism-based. Particulars: in vivo.
Series [4] is described as follows: Kinetic solubility in PBS. The series is classed as physicochemical. Particulars: read-out: Kinetic_solubility.
A short description of series [5]: Oral bioavailability in rat at 5 mg/kg administered as cassette dose. The series is classed as ADME, organism-based. The note with it: in vivo.

Take `CCC(c1ccc(Cl)c2nc3n(c12)CCCN3c1ccc(Cl)cc1Cl)n1ccnc1` (configuration not stated): in series [1], the logD was found to be 3.53.
On to `CCC(=O)c1ccc(Cl)c2nc3n(c12)CCCN3c1ccc(Cl)cc1Cl`, for which the logD in series [1] amounted to 4.01.
`CCN(CC)c1ccc(Cl)c2nc3n(c12)CCCN3c1ccc(Cl)cc1Cl` gave a log distribution coefficient (logD) in series [1] of 5.25. Moreover, the solubility in series [2] is below 0.06 µg/mL. Moreover, in series [3], the bioavailability is 4.1%.
In the case of `CCC(OC)c1ccc(Cl)c2nc3n(c12)CCCN3c1ccc(Cl)cc1Cl` (configuration not stated), in series [1], the log distribution coefficient (logD) is 4.38.
Still for that read-out and setting: for `CCC(C#N)c1ccc(Cl)c2nc3n(c12)CCCN3c1ccc(Cl)cc1Cl` (configuration not stated) the value was 3.69.
Compound `COc1nc(C)c(N2CCCn3c2nc2c(Cl)ccc([C@@H](OC(F)F)C(F)(F)F)c23)c(C)n1` showed a logD in series [1] of 3.18. Moreover, the solubility kinetic in series [4] was determined as 55 µg/mL (≈ 112 µM). Moreover, the bioavailability in series [5] came to 68%.
For `CCC(O)c1ccc(Cl)c2nc3n(c12)CCCN3c1ccc(Cl)cc1Cl` (configuration not stated), in series [1], the logD was 3.57.
In turn, `COc1nc(C)nc(OC)c1N1CCCn2c1nc1c(Cl)ccc(C(OC(F)F)C(F)(F)F)c12` (racemic) gave a logD in series [1] of 3.71. In addition, in series [2], the concentration in solution (solubility) came to 14 µg/mL (≈ 27.6 µM).
Turning to `CCc1nc(C)c(N2CCCn3c2nc2c(Cl)ccc(C(OC(F)F)C(F)(F)F)c23)c(C)n1` (racemic), in series [1], the log distribution coefficient (logD) came to 3.21. This compound also displayed a solubility in series [2] of 37 µg/mL (≈ 75.5 µM).
In turn, `COc1ccc(N2CCCn3c2nc2c(Cl)ccc(C(OC(F)F)C(F)(F)F)c23)c(C)n1` (racemic) registered a logD in series [1] of 3.43. The compound also displayed a solubility in series [2] of 17 µg/mL (≈ 35.7 µM).
Compound `COc1nc(C)c(N2CCCn3c2nc2c(Cl)ccc(C(OC(F)F)C(F)(F)F)c23)c(C)n1` (racemic) gave a logD in series [1] of 3.08. In series [2], the concentration in solution (solubility) came to 54 µg/mL (≈ 110 µM).
For `Cc1nc(C)c(N2CCCn3c2nc2c(Cl)ccc(C(OC(F)F)C(F)(F)F)c23)c(C)n1` (racemic), in series [1], the pH-dependent lipophilicity (logD) was 2.87. The same compound had a solubility in series [2] of 71 µg/mL (≈ 149 µM).
For the compound `CCc1nc(C)nc(CC)c1N1CCCn2c1nc1c(Cl)ccc(C(OC(F)F)C(F)(F)F)c12` (racemic), the logD in series [1] turned out to be 3.52. Further, in series [2], the solubility worked out at 46 µg/mL (≈ 91.3 µM).
In series [1], `FC(F)OC(c1ccc(Cl)c2nc3n(c12)CCCN3c1ccc(Cl)cc1Cl)C(F)(F)F` (racemic) returned a logD of 4.3. Further, the solubility in series [2] was below 0.09 µg/mL.
The compound `COc1ccc(N2CCCn3c2nc2c(Cl)ccc(C(OC(F)F)C(F)(F)F)c23)c(C)c1` (racemic) yielded a logD in series [1] of 3.76. The compound further showed a solubility in series [2] of 1.5 µg/mL (≈ 3.15 µM).
